Drawing on BindingDB's records for PubMed 34792334 (n/a, 2021), this text covers IC50 for 2 molecules.

In test [1] the target is T1, Alpha-ketoglutarate-dependent dioxygenase FTO (Homo sapiens, UniProt Q9C0B1). Briefly: Inhibition of FTO (unknown origin) demethylation activity using m6A7-Broccoli RNA as substrate incubated for 3 mins under shaking condition and measured after 2 hrs by fluorescence based analysis.
In test [2] the target is T1, Alpha-ketoglutarate-dependent dioxygenase FTO. Briefly: Inhibition of FTO (unknown origin) demethylation activity.

T1 sequence (Q9C0B1 whole entry): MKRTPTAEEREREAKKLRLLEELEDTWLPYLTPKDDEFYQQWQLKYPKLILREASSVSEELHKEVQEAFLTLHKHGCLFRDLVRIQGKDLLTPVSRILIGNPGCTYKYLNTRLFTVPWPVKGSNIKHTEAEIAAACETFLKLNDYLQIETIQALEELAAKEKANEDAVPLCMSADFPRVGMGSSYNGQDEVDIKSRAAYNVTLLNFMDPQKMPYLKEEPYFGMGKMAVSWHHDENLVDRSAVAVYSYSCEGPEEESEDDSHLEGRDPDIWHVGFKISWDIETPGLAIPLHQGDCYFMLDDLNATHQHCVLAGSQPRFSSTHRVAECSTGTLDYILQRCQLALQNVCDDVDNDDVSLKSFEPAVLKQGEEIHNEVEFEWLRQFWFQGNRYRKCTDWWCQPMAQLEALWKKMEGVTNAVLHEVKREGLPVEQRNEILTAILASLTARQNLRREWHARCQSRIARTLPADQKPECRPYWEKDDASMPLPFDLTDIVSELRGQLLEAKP

For orientation: IC50 means the concentration that inhibits the measured activity by half. High values mean weaker potency, low ones greater potency. Consider `Nc1sc(-c2cncnc2)c2c1C(=O)c1ccccc1-2`, for which the IC50 in test [1] is 1.2 µM.
On to `CCOc1nc2ccccc2nc1C(=O)Nc1ccc(N(CC)CC)cc1`, for which, in test [2], 1.2 µM corresponded to half-maximal inhibition (IC50).
